Read-outs that look alike come from different tables or passages of the source.
Legend:
[1] = target: NR1s1s2 (ligand binding domains of the NMDA receptor), glycine site (Rattus norvegicus, UniProt P35439); test: Scintillation Proximity Assay (SPA), displacement of [3H]-MDL-105,519; conditions: radioligand used in SPA
Excerpt: Scintillation Proximity Assay (SPA):
Normalized data are used to calculate Ki values.

[2] = In vivo exposure (brain disposition) after intravenous bolus injection; design: species or system male Sprague Dawley rats; conditions: male, Sprague-Dawley, rat, 2 mg/kg intravenous bolus, 30 min post dose
Experimental: Brain disposition of test compound was evaluated in male Sprague Dawley rats (standard body weight range). Briefly, discrete (nominal dose: 2 mg/kg, 2 ml/kg) or cassetted (nominal dose: 1 mg/kg/compound, 2 ml/kg) test compounds were administered by intravenous bolus injection (formulated in 10% hydroxypropyl-β-cyclodextrin or 10-20% Captisol, pH=3).
Serial blood samples were collected from a lateral tail vein at designated time points (n=3 per time point) then rats were put under deep isoflurane induced anesthesia prior to removal of brains (n=3 per time point). Blood was collected into K3-EDTA-coated tubes and the samples were gently turned upside-down to ensure a homogenous sample. The tubes were centrifuged at 3300×g for 10 min. at max 4° C. and plasma samples were transferred to Micronic tubes. […]
Seven calibration standards and three QC samples were prepared in plasma and brain homogenate, respectively, in the concentration range 10-10000 ng/mL. […] Study samples with expected concentration above upper limit of quantification were diluted with blank matrix. […]
Samples were analyzed using an AB Sciex API4000 triple quadrupole (TQ) mass spectrometer operated in positive and negative electrospray ionization and MS/MS mode (multiple reaction monitoring, MRM). […] Quantification was performed by linear regression, 1/x2 weighting.

[3] = test system: High Frequency Oscillations (HFO) in the nucleus accumbens; test: Resting state electroencephalography (rsEEG) in rats; assay type: in vivo; conditions: rat, 20 mg/kg, vs 10% captisol, FIG. 1
Experimental: On the day of surgery, rats (270-300 g) were anesthetized with a 0.25 ml/100 g subcutaneous (SC) injection of 1:1 hypnorm/Dormicum and mounted in a stereotaxic frame (David Kopf Instruments, Tujunga, Calif., USA) with blunt ear bars. Marcain (0.2 ml SC) was injected under the scalp, and gel (Neutral Opthta Eye Gel) put on the eyes to prevent the mucous membrane drying out. Holes were burred in the skull to allow for placement of three depth electrodes (E363-series; PlasticsOne, Roanoke, Va., USA) in medial prefrontal cortex (mPFC) (AP: 3.0 mm from the bregma suture, ML: −0.7 mm from the sagittal suture and DV: 3.0 mm from the dura), Nucleus accumbens (NAc): (AP+1.6 mm from the bregma suture, ML: −1.0 mm from the sagittal suture, DV: −6.7 mm from the dura) and thalamus (AP: −2.8 mm from the bregma suture, ML: +0.7 mm from the sagittal suture and DV: 4.4 mm from the dura) and three screw electrodes above the auditory cortex (A1) (AP: −4.8 mm from the bregma suture, ML: +6.4 mm from the sagittal suture), a reference electrode (AP: +8.0 mm and ML: −2.0 mm), and a ground electrode (AP: −5 mm, ML: +5 mm). […] Animal bodyweights were recorded daily. […]
Rats were handled daily and habituated to recording box the week before recording sessions. […] The analysis of the locomotor behaviour was based on the recorded accelerometer signal. […]

[4] = Microdialysis studies in rats (ventral hippocampus); assay type: in vivo, Male Sprague-Dawley rats; conditions: 30 mg/kg subcutaneously, FIG. 2
Experimental: Male Sprague-Dawley rats, initially weighing 275-300 g, were used. The animals were housed under a 12-hr light/dark cycle under controlled conditions for regular in-door temperature (21±2° C.) and humidity (55±5%) with food and tap water available ad libitum.
Rats were anaesthetised with hypnorm/dormicum (2 ml/kg) and intracerebral guide cannulas.
(CMA/12) were stereotaxically implanted into the brain, aiming to position the dialysis probe tip in the ventral hippocampus (co-ordinates: 5.6 mm posterior to bregma, lateral −4.8 mm, 7.0 mm ventral to dura. Anchor screws and acrylic cement were used for fixation of the guide cannulas. The body temperature of the animals was monitored by rectal probe and maintained at 37° C. The rats were allowed to recover from surgery for 2 days, housed singly in cages.
On the day of the experiment a microdialysis probe (CMA/12, 0.5 mm diameter, 3 mm length) was inserted through the guide cannula. The probe was connected via a dual channel swivel to a microinjection pump. Perfusion of the microdialysis probe with filtered Ringer solution (145 mm NaCl, 3 mM KCl, 1 mM MgCl2, 1.2 mM CaCl2) was begun shortly before insertion of the probe into the brain and continued for the duration of the experiment at a constant flow rate of 1 μl/min. After 180 min of stabilisation, the experiments were initiated. […]

Row | Structure (SMILES) | Kd [1] [nM] | concentration at 30 min ([2]; brain, read-out: Total Brain concentration (ng/mL) 30 min post dose) [ng/mL] | concentration at 30 min ([2]; plasma, read-out: Total Plasma concentration (ng/mL) 30 min post dose) [ng/mL] | Effect in rsEEG (High Frequency Oscillations in the nucleus accumbens) compared to vehicle [3] | Extracellular levels in the rat ventral hippocampus after systemic administration [4]
1 | O=C(O)C(=Cc1c(C(=O)O)[nH]c2cc(Cl)cc(Cl)c12)c1ccccc1 [[^3H]-MDL-105,519] | 1.3 |  |  |  | 
2 | Cc1ccnc2cc(C(=O)NC[C@@H](N)C(=O)O)sc12 [Compound 1e, (R)-2-amino-3-[(7-methylthieno[3,2-b]pyridine-2-carbonyl)amino]propanoic acid] |  | 8.4 | 270 | clear effect | considerable extracellular levels

Source: patent US11466027B2, “Modulators of the NMDA receptor” (H. Lundbeck A/S, priority 2019, dated 2022)
